From patent US20120270875A1, “PYRIMIDINE AMIDE COMPOUNDS” (priority 2011, published 2012)
Like-named read-outs stand apart in the source and are kept apart here.

Experiments:
[1] = test system: PBMC's from two healthy donors; test: Human Mixed Lymphocyte Reaction (hMLR); assay type: cell-based; details: 3H-thymidine incorporation, read-out: human MLR (IC50)
Method: Human Mixed Lymphocyte Reaction (hMLR)
PBMC's were isolated from two healthy donors by Ficoll gradient. Cells were resuspended with 4 mL assay media and counted with a Coulter Counter. Both cell populations were resuspended to 1×10^7/mL. Stimulator cells were irradiated for 2.5 min (2000 RAD) in cesium irradiator. 5×10^5 cells were added to duplicate wells of the plate. Included were quadruplicate wells receiving responder cells alone and stimulator cells alone. The compound to be tested was solubilized in DMSO. A series of 1:3 dilutions were performed to achieve a concentration range of 0.45 nM-3 uM. One hundred μl of the solutions to be tested were added to the cell plate (100 μl of 2% DMSO/media added to control wells). Plates were then incubated for 2.5 days at 37° C. with 5% CO2. Plates were pulsed with 50 μl/well 3H-thymidine at 0.5 uCi/well then incubated for 6 hours at 37° C. with 5% CO2. Cells were harvested using Cell Harvester (TomTec) and counted on TopCount (Perkin Elmer).

sLFA-1/ICAM-1 = sLFA-1/ICAM-1 (Homo sapiens, UniProt P05107+P20701, DEL701-769); test: sLFA-1/ICAM-1 ELISA; assay type: binding
Chain of sLFA-1/ICAM-1 (P20701 26-1090 limits assumed, stated change not applied): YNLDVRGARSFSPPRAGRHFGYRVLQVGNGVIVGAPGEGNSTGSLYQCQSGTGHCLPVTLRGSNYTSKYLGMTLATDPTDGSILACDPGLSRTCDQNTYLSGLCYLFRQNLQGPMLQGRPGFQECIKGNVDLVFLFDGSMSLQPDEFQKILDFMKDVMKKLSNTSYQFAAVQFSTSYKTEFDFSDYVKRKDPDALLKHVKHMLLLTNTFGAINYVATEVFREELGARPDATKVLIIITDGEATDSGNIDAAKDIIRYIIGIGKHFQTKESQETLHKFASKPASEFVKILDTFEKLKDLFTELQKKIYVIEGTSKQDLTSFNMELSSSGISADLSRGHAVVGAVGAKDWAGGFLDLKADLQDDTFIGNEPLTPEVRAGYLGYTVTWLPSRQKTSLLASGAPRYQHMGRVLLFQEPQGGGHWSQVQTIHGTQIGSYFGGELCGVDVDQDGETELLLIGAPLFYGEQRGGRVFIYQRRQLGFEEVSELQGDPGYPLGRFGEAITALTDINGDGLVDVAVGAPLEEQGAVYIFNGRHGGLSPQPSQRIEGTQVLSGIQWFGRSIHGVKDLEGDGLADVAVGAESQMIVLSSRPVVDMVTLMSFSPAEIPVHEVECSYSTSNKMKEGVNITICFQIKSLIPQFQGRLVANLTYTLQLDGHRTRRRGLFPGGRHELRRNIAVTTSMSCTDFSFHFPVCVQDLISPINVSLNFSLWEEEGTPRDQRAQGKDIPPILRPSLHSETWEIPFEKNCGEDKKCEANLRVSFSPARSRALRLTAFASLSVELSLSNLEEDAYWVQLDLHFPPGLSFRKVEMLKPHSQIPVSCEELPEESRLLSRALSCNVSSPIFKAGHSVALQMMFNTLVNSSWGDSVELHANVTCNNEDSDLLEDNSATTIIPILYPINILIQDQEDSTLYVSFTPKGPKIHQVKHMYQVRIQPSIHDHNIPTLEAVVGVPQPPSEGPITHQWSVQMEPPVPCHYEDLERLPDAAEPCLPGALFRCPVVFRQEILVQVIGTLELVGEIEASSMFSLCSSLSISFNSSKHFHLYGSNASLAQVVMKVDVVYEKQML
Chain of sLFA-1/ICAM-1 (P05107 23-700 limits assumed, stated change not applied): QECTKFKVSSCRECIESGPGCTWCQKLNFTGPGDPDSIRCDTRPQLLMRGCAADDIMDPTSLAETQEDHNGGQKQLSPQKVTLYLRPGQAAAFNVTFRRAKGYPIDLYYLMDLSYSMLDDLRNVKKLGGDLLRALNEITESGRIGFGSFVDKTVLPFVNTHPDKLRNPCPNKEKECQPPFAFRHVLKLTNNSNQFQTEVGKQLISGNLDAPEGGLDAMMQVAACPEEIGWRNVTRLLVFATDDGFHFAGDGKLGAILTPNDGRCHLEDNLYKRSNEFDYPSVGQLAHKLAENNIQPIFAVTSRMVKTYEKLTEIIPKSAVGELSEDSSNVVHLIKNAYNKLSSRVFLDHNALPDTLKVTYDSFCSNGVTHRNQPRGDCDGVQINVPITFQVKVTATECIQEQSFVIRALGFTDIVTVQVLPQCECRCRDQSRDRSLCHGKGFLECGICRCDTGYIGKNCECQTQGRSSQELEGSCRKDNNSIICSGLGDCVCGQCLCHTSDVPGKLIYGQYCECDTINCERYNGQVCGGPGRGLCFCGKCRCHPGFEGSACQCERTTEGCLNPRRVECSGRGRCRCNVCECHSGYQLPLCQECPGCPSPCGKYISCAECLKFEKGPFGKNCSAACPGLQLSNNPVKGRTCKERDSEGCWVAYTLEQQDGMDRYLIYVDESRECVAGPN
Method: (§1) sLFA-1/ICAM-1 ELISA and Mac-1/ICAM-1 ELISA
(§2) Plates were coated with either 50 μl/well of 2.0 ug/ml solution of sLFA-1 or Mac-1 receptor in divalent cation buffer (1 mM MnCl2, 0.14M NaCl, 20 mM HEPES pH 7.2) at 4° C. overnight. Two hundred fifty μl of blocking buffer (1% BSA in divalent cation buffer) was added to each well 1 hour at 37° C. Plates were washed 3 times with wash buffer (TBS/0.05% Tween-20/1 mM MnCl2). The compound to be tested was solubilized in DMSO. A series of 1:3 dilutions were performed to achieve a concentration range of 0.45 nM-3 uM. Fifty μl of binding buffer (0.5% BSA in divalent cation buffer)/1% DMSO and 50 μl of the solutions to be tested were added to the appropriate wells and incubated for 1 hour. Fifty μl of 5dICAM-Fc (27 ng/ml) was added to the appropriate wells and 50 μl binding buffer was added to non-specific binding wells and incubated for 2 hours and washed. One hundred μl of 1:4000 HRP-goat anti-huIgG was added to each well and incubated for 1 hour and washed. One hundred μl of 1:1 TMB solution was added to each well and developed for 20 min at room temperature. Color development was stopped by adding 100 μl H3PO4 to each well. Absorbance was measured at 450 nm.

Mac-1/ICAM-1 = Mac-1/ICAM-1 (Homo sapiens, UniProt P05107+P11215); test: Mac-1/ICAM-1 ELISA; details: Mac-1 coated plates, 5dICAM-Fc binding
Chain of Mac-1/ICAM-1 (P05107 23-769, other chains not shown): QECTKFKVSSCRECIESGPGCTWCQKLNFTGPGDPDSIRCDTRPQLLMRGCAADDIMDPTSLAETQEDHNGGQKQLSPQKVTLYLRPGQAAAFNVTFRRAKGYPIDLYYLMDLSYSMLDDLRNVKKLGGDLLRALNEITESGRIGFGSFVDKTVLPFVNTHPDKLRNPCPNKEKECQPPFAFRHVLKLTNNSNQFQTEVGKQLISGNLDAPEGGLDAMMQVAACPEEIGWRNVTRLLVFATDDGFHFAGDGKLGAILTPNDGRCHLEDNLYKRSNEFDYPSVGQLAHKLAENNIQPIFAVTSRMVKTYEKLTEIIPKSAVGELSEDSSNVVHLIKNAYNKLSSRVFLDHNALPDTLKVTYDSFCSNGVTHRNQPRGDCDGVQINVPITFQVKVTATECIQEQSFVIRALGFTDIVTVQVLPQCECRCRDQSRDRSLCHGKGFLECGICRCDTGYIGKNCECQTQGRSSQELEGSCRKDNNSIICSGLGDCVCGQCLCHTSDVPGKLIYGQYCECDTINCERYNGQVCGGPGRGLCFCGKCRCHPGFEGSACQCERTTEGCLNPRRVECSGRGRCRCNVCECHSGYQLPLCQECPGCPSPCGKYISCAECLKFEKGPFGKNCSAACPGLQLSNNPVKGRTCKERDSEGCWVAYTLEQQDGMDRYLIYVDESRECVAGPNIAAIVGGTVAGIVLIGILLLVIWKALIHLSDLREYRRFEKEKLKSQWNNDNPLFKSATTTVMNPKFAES
Method: as §1, §2

[2] = sLFA-1 coated plates, 5dICAM-Fc binding, ELISA, read-out: LFA-1/ICAM (IC50)

SMILES	IC50 [1] [nM]	IC50 (sLFA-1/ICAM-1; [2]) [nM]	IC50 (Mac-1/ICAM-1) [nM]	IC50 (sLFA-1/ICAM-1) [nM]
Cc1nc(NCCCc2cccc(O)c2)nc(C)c1C(=O)N[C@@H](CNC(=O)c1cnccn1)C(=O)O [Example 93, (S)-2-({2-[3-(3-hydroxy-phenyl)-propylamino]-4,6-dimethyl-pyrimidine-5-carbonyl}-amino)-3-[(pyrazine-2-carbonyl)-amino]-propionic acid]	2300	29	–	–
Cc1nc(NC/C=C\c2cccc(O)c2)nc(C)c1C(=O)N[C@@H](CNC(=O)c1cccs1)C(=O)O [Example 73, (S)-2-({2-[(Z)-3-(3-Hydroxy-phenyl)-allylamino]-4,6-dimethyl-pyrimidine-5-carbonyl}-amino)-3-[(thiophene-2-carbonyl)-amino]-propionic acid]	809	56	–	–
Cc1nc(NC2CCc3cccc(O)c3C2)nc(C)c1C(=O)N[C@@H](CNC(=O)c1cnccn1)C(=O)O (stereo partly drawn) [Example 117, (S)-2-{[2-(8-Hydroxy-1,2,3,4-tetrahydro-naphthalen-2-ylamino)-4,6-dimethyl-pyrimidine-5-carbonyl]-amino}-3-[(pyrazine-2-carbonyl)-amino]-propionic acid]	5110	175	–	–
Cc1ccc(C(=O)NC[C@H](NC(=O)c2c(C)nc(NCCCc3cccc(O)c3)nc2C)C(=O)O)s1 [Example 87, (S)-2-({2-[3-(3-hydroxy-phenyl)-propylamino]-4,6-dimethyl-pyrimidine-5-carbonyl}-amino)-3-[(5-methyl-thiophene-2-carbonyl)-amino]-propionic acid]	1430	4	–	–
Cc1nc(NCC#Cc2cccc(O)c2)nc(C)c1C(=O)N[C@@H](CNC(=O)c1cccs1)C(=O)O [Example 61, (S)-2-({2-[3-(3-Hydroxy-phenyl)-prop-2-ynylamino]-4,6-dimethyl-pyrimidine-5-carbonyl}-amino)-3-[(thiophene-2-carbonyl)-amino]-propionic acid]	1180	41	55	–
CC(=O)NC[C@H](NC(=O)c1c(C)nc(NCCCc2cccc3[nH]ncc23)nc1C)C(=O)O [Example 4, (S)-3-acetylamino-2-({2-[3-(1H-indazol-4-yl)-propylamino]-4,6-dimethyl-pyrimidine-5-carbonyl}-amino)-propionic acid]	10000	120	–	–
Cc1nc(NCCCc2cccc(O)c2)ncc1C(=O)N[C@@H](CNC(=O)c1cccs1)C(=O)O [Example 76, (S)-2-({2-[3-(3-Hydroxy-phenyl)-propylamino]-4-methyl-pyrimidine-5-carbonyl}-amino)-3-[(thiophene-2-carbonyl)-amino]-propionic acid]	1760	9	–	–
Cc1nc(NCCCc2cccc(O)c2)nc(C)c1C(=O)N[C@@H](CNC(=O)c1cccc(O)c1)C(=O)O [Example 83]	138	28	25	–
Cc1nc(NCCCc2cccc(O)c2)nc(C)c1C(=O)N[C@@H](CNC(=O)N(C)C)C(=O)O [Example 113, (S)-3-(3,3-Dimethyl-ureido)-2-({2-[3-(3-Hydroxy-phenyl)-propylamino]-4,6-dimethyl-pyrimidine-5-carbonyl}-amino)-propionic acid]	4180	74	–	–
Cc1nc(NCCCc2cccc(O)c2)nc(C)c1C(=O)N[C@@H](CNC(=O)c1cscn1)C(=O)O [Example 46, (S)-2-({2-[3-(3-hydroxy-phenyl)-propylamino]-4,6-dimethyl-pyrimidine-5-carbonyl}-amino)-3-[(thiazole-4-carbonyl)-amino]-propionic acid]	753	26	–	–
CCc1nc(NCCCc2cccc(O)c2)nc(C)c1C(=O)N[C@@H](CNC(=O)c1cccs1)C(=O)O [Example 78, (S)-2-({4-Ethyl-2-[3-(3-hydroxy-phenyl)-propylamino]-6-methyl-pyrimidine-5-carbonyl}-amino)-3-[(thiophene-2-carbonyl)-amino]-propionic acid]	766	20	–	–
Cc1nc(OCCCc2cccc(O)c2)nc(C)c1C(=O)N[C@@H](CNC(=O)c1cccs1)C(=O)O [Example 3, (S)-2-({2-[3-(3-hydroxy-phenyl)-propoxy]-4,6-dimethyl-pyrimidine-5-carbonyl}-amino)-3-[(thiophene-2-carbonyl)-amino]-propionic acid]	574	32	57	–
Cc1ccc(CCCNc2nc(C)c(C(=O)N[C@@H](CNC(=O)c3cccs3)C(=O)O)c(C)n2)cc1O [Example 67, (S)-2-({2-[3-(3-Hydroxy-4-methyl-phenyl)-propylamino]-4,6-dimethyl-pyrimidine-5-carbonyl}-amino)-3-[(thiophene-2-carbonyl)-amino]-propionic acid]	–	329	–	–
Cc1nc(NCCCc2ccc3cn[nH]c3c2)nc(C)c1C(=O)N[C@@H](CNC(=O)c1cccs1)C(=O)O [Example 63, (S)-2-({2-[3-(1H-Indazol-6-yl)-propylamino]-4,6-dimethyl-pyrimidine-5-carbonyl}-amino)-3-[(thiophene-2-carbonyl)-amino]-propionic acid]	–	323	670	–
Cc1csc(C(=O)NC[C@H](NC(=O)c2c(C)nc(NCCCc3cccc(O)c3)nc2C)C(=O)O)c1 [Example 89, (S)-2-({2-[3-(3-hydroxy-phenyl)-propylamino]-4,6-dimethyl-pyrimidine-5-carbonyl}-amino)-3-[(4-methyl-thiophene-2-carbonyl)-amino]-propionic acid]	–	78	–	–
Cc1nc(NCCCc2cccc(O)c2)nc(C)c1C(=O)N[C@@H](CNC(=O)Nc1ccccc1)C(=O)O [Example 107, (S)-2-({2-[3-(3-hydroxy-phenyl)-propylamino]-4,6-dimethyl-pyrimidine-5-carbonyl}-amino)-3-(3-phenyl-ureido)-propionic acid]	–	–	–	166
Cc1cnc(C(=O)NC[C@H](NC(=O)c2c(C)nc(NCCCc3cccc(O)c3)nc2C)C(=O)O)cn1 [Example 101, (S)-2-({2-[3-(3-Hydroxy-phenyl)-propylamino]-4,6-dimethyl-pyrimidine-5-carbonyl}-amino)-3-[(5-methyl-pyrazine-2-carbonyl)-amino]-propionic acid]	6340	52	–	–
Cc1nc(NC/C=C/c2cccc(O)c2)nc(C)c1C(=O)N[C@@H](CNC(=O)c1cccs1)C(=O)O [Example 74, (S)-2-({2-[(E)-3-(3-Hydroxy-phenyl)-allylamino]-4,6-dimethyl-pyrimidine-5-carbonyl}-amino)-3-[(thiophene-2-carbonyl)-amino]-propionic acid]	2060	152	–	–
Cc1nc(NCCCc2cccc(O)c2)nc(C)c1C(=O)N[C@@H](CNC(=O)N1CCCc2ccccc21)C(=O)O [Example 115, (S)-3-[(3,4-Dihydro-2H-quinoline-1-carbonyl)-amino]-2-({2-[3-(3-hydroxy-phenyl)-propylamino]-4,6-dimethyl-pyrimidine-5-carbonyl}-amino)-propionic acid]	–	456	–	–
Cc1nc(NCCCc2cccc(O)c2)nc(C)c1C(=O)N[C@@H](CNC(=O)OCc1ccccc1)C(=O)O [Example 111, (S)-3-Benzyloxycarbonylamino-2-({2-[3-(3-Hydroxy-phenyl)-propylamino]-4,6-dimethyl-pyrimidine-5-carbonyl}-amino)-propionic acid]	4880	56	–	–
Cc1ccc(O)cc1CCCNc1nc(C)c(C(=O)N[C@@H](CNC(=O)c2cccs2)C(=O)O)c(C)n1 [Example 72, (S)-2-({2-[3-(2-Methyl-5-hydroxy-phenyl)-propylamino]-4,6-dimethyl-pyrimidine-5-carbonyl}-amino)-3-[(thiophene-2-carbonyl)-amino]-propionic acid]	–	159	–	–
CCc1nc(NCCCc2cccc(O)c2)nc(CC)c1C(=O)N[C@@H](CNC(=O)c1cccs1)C(=O)O [Example 79, (S)-2-({4,6-Diethyl-2-[3-(3-hydroxy-phenyl)-propylamino]-pyrimidine-5-carbonyl}-amino)-3-[(thiophene-2-carbonyl)-amino]-propionic acid]	–	90	–	–
Cc1nc(NCCCc2cccc(O)n2)nc(C)c1C(=O)N[C@@H](CNC(=O)c1cccs1)C(=O)O [Example 52, (S)-2-({2-[3-(6-Hydroxy-pyridin-2-yl)-propylamino]-4,6-dimethyl-pyrimidine-5-carbonyl}-amino)-3-[(thiophene-2-carbonyl)-amino]-propionic acid]	–	1980	–	–
